Measurements taken from PMC5314825 (Journal of Pharmacy & Bioallied Sciences, 2016).

Biological target: aldose reductase (AR) (Capra hircus, UniProt A0A452EAQ3)
Experiment: NADPH oxidation at […] nm with xylose as substrate
Assay type: cell-based
Details: read-out: % inhibition at 4.5 μg/ml

Structure (SMILES): O=c1c(O)c(-c2ccc(O)c(O)c2)oc2cc(O)cc(O)c12 [quercetin]
- inhibition at 4.5 µg/mL: 64.6%
